Source: PubChem BioAssay AID1845212 (Molecular Pharmacology Branch, DTP, NCI, 2023)

system: NCI-H719 tumor spheroids, viability; experiment: Anticancer human tumor NCI-H719 cell line growth inhibition; settings: curve of first compound; second compound 0.003 µM; spheroids with HUVEC and MSC;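 also: spheroids exposed to compounds for seven days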;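 as to viability, T/C: percent viability relative to DMSO vehicle control as 100%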
In short: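 Single agents and combinations were tested on spheroids built from tumor cells plus HUVEC and hMSC, at half-log dilutions starting at or near clinical Cmax, else 10 microM; final DMSO 0.25% (v/v).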

SMILES	IC50
CC(C)n1c(=O)n(C)c2cnc3cc(F)c(-c4ccc(OCCCN5CCCCC5)nc4)cc3c21 + CC[C@@]1(O)C(=O)OCc2c1cc1n(c2=O)Cc2cc3c(CN(C)C)c(O)ccc3nc2-1	< 0.0316 µM
CC1COCCN1c1cc(-c2ccnn2C)c2ccnc(-c3ccn[nH]3)c2n1 (configuration not stated) + CC[C@@]1(O)C(=O)OCc2c1cc1n(c2=O)Cc2cc3c(CN(C)C)c(O)ccc3nc2-1	< 0.0316 µM
COc1cc(C)[nH]c(=O)c1CN1CCc2c(Cl)cc(C(OC)C3COC3)c(Cl)c2C1=O (configuration not stated) + CC[C@@]1(O)C(=O)OCc2c1cc1n(c2=O)Cc2cc3c(CN(C)C)c(O)ccc3nc2-1	> 10 µM
COc1ccc([C@@H](O)c2cc(-c3ncnc4cc(N5CCOCC5)ccc34)c(F)cc2Cl)nn1 + CC[C@@]1(O)C(=O)OCc2c1cc1n(c2=O)Cc2cc3c(CN(C)C)c(O)ccc3nc2-1	< 0.0316 µM
Cc1cc(C)c(CNC(=O)c2cc(-c3ccc(CN4CCOCC4)cc3)cc3c2cnn3C2CCCC2)c(=O)[nH]1 + CC[C@@]1(O)C(=O)OCc2c1cc1n(c2=O)Cc2cc3c(CN(C)C)c(O)ccc3nc2-1	2.26 µM
[2H]c1nc(C)nc([2H])c1-c1cc(NC[C@@H](C)c2cccc3c(C(=O)NC)ccnc23)ncn1 + CC[C@@]1(O)C(=O)OCc2c1cc1n(c2=O)Cc2cc3c(CN(C)C)c(O)ccc3nc2-1	> 10 µM

same assay, conditions: curve of first compound; second compound 0.00949 µM; spheroids with HUVEC and MSC

SMILES	IC50
CC(C)n1c(=O)n(C)c2cnc3cc(F)c(-c4ccc(OCCCN5CCCCC5)nc4)cc3c21 + CC[C@@]1(O)C(=O)OCc2c1cc1n(c2=O)Cc2cc3c(CN(C)C)c(O)ccc3nc2-1	< 0.0316 µM
CC1COCCN1c1cc(-c2ccnn2C)c2ccnc(-c3ccn[nH]3)c2n1 (configuration not stated) + CC[C@@]1(O)C(=O)OCc2c1cc1n(c2=O)Cc2cc3c(CN(C)C)c(O)ccc3nc2-1	< 0.0316 µM
COc1cc(C)[nH]c(=O)c1CN1CCc2c(Cl)cc(C(OC)C3COC3)c(Cl)c2C1=O (configuration not stated) + CC[C@@]1(O)C(=O)OCc2c1cc1n(c2=O)Cc2cc3c(CN(C)C)c(O)ccc3nc2-1	< 0.0316 µM
COc1ccc([C@@H](O)c2cc(-c3ncnc4cc(N5CCOCC5)ccc34)c(F)cc2Cl)nn1 + CC[C@@]1(O)C(=O)OCc2c1cc1n(c2=O)Cc2cc3c(CN(C)C)c(O)ccc3nc2-1	< 0.0316 µM
Cc1cc(C)c(CNC(=O)c2cc(-c3ccc(CN4CCOCC4)cc3)cc3c2cnn3C2CCCC2)c(=O)[nH]1 + CC[C@@]1(O)C(=O)OCc2c1cc1n(c2=O)Cc2cc3c(CN(C)C)c(O)ccc3nc2-1	< 0.0316 µM
[2H]c1nc(C)nc([2H])c1-c1cc(NC[C@@H](C)c2cccc3c(C(=O)NC)ccnc23)ncn1 + CC[C@@]1(O)C(=O)OCc2c1cc1n(c2=O)Cc2cc3c(CN(C)C)c(O)ccc3nc2-1	< 0.0316 µM

same assay, conditions: curve of first compound; second compound 0.03 µM; spheroids with HUVEC and MSC

SMILES	IC50
CC(C)n1c(=O)n(C)c2cnc3cc(F)c(-c4ccc(OCCCN5CCCCC5)nc4)cc3c21 + CC[C@@]1(O)C(=O)OCc2c1cc1n(c2=O)Cc2cc3c(CN(C)C)c(O)ccc3nc2-1	< 0.0316 µM
CC1COCCN1c1cc(-c2ccnn2C)c2ccnc(-c3ccn[nH]3)c2n1 (configuration not stated) + CC[C@@]1(O)C(=O)OCc2c1cc1n(c2=O)Cc2cc3c(CN(C)C)c(O)ccc3nc2-1	< 0.0316 µM
COc1cc(C)[nH]c(=O)c1CN1CCc2c(Cl)cc(C(OC)C3COC3)c(Cl)c2C1=O (configuration not stated) + CC[C@@]1(O)C(=O)OCc2c1cc1n(c2=O)Cc2cc3c(CN(C)C)c(O)ccc3nc2-1	< 0.0316 µM
COc1ccc([C@@H](O)c2cc(-c3ncnc4cc(N5CCOCC5)ccc34)c(F)cc2Cl)nn1 + CC[C@@]1(O)C(=O)OCc2c1cc1n(c2=O)Cc2cc3c(CN(C)C)c(O)ccc3nc2-1	< 0.0316 µM
Cc1cc(C)c(CNC(=O)c2cc(-c3ccc(CN4CCOCC4)cc3)cc3c2cnn3C2CCCC2)c(=O)[nH]1 + CC[C@@]1(O)C(=O)OCc2c1cc1n(c2=O)Cc2cc3c(CN(C)C)c(O)ccc3nc2-1	< 0.0316 µM
[2H]c1nc(C)nc([2H])c1-c1cc(NC[C@@H](C)c2cccc3c(C(=O)NC)ccnc23)ncn1 + CC[C@@]1(O)C(=O)OCc2c1cc1n(c2=O)Cc2cc3c(CN(C)C)c(O)ccc3nc2-1	< 0.0316 µM

same assay, conditions: curve of first compound; second compound 0.0949 µM; spheroids with HUVEC and MSC

SMILES	IC50
CC(C)n1c(=O)n(C)c2cnc3cc(F)c(-c4ccc(OCCCN5CCCCC5)nc4)cc3c21 + CC[C@@]1(O)C(=O)OCc2c1cc1n(c2=O)Cc2cc3c(CN(C)C)c(O)ccc3nc2-1	< 0.0316 µM
CC1COCCN1c1cc(-c2ccnn2C)c2ccnc(-c3ccn[nH]3)c2n1 (configuration not stated) + CC[C@@]1(O)C(=O)OCc2c1cc1n(c2=O)Cc2cc3c(CN(C)C)c(O)ccc3nc2-1	< 0.0316 µM
COc1cc(C)[nH]c(=O)c1CN1CCc2c(Cl)cc(C(OC)C3COC3)c(Cl)c2C1=O (configuration not stated) + CC[C@@]1(O)C(=O)OCc2c1cc1n(c2=O)Cc2cc3c(CN(C)C)c(O)ccc3nc2-1	< 0.0316 µM
COc1ccc([C@@H](O)c2cc(-c3ncnc4cc(N5CCOCC5)ccc34)c(F)cc2Cl)nn1 + CC[C@@]1(O)C(=O)OCc2c1cc1n(c2=O)Cc2cc3c(CN(C)C)c(O)ccc3nc2-1	< 0.0316 µM
Cc1cc(C)c(CNC(=O)c2cc(-c3ccc(CN4CCOCC4)cc3)cc3c2cnn3C2CCCC2)c(=O)[nH]1 + CC[C@@]1(O)C(=O)OCc2c1cc1n(c2=O)Cc2cc3c(CN(C)C)c(O)ccc3nc2-1	< 0.0316 µM
[2H]c1nc(C)nc([2H])c1-c1cc(NC[C@@H](C)c2cccc3c(C(=O)NC)ccnc23)ncn1 + CC[C@@]1(O)C(=O)OCc2c1cc1n(c2=O)Cc2cc3c(CN(C)C)c(O)ccc3nc2-1	< 0.0316 µM

same assay, conditions: curve of first compound; second compound 0.3 µM; spheroids with HUVEC and MSC

SMILES	IC50
CC(C)n1c(=O)n(C)c2cnc3cc(F)c(-c4ccc(OCCCN5CCCCC5)nc4)cc3c21 + CC[C@@]1(O)C(=O)OCc2c1cc1n(c2=O)Cc2cc3c(CN(C)C)c(O)ccc3nc2-1	< 0.0316 µM
CC1COCCN1c1cc(-c2ccnn2C)c2ccnc(-c3ccn[nH]3)c2n1 (configuration not stated) + CC[C@@]1(O)C(=O)OCc2c1cc1n(c2=O)Cc2cc3c(CN(C)C)c(O)ccc3nc2-1	< 0.0316 µM
COc1cc(C)[nH]c(=O)c1CN1CCc2c(Cl)cc(C(OC)C3COC3)c(Cl)c2C1=O (configuration not stated) + CC[C@@]1(O)C(=O)OCc2c1cc1n(c2=O)Cc2cc3c(CN(C)C)c(O)ccc3nc2-1	< 0.0316 µM
COc1ccc([C@@H](O)c2cc(-c3ncnc4cc(N5CCOCC5)ccc34)c(F)cc2Cl)nn1 + CC[C@@]1(O)C(=O)OCc2c1cc1n(c2=O)Cc2cc3c(CN(C)C)c(O)ccc3nc2-1	< 0.0316 µM
Cc1cc(C)c(CNC(=O)c2cc(-c3ccc(CN4CCOCC4)cc3)cc3c2cnn3C2CCCC2)c(=O)[nH]1 + CC[C@@]1(O)C(=O)OCc2c1cc1n(c2=O)Cc2cc3c(CN(C)C)c(O)ccc3nc2-1	< 0.0316 µM
[2H]c1nc(C)nc([2H])c1-c1cc(NC[C@@H](C)c2cccc3c(C(=O)NC)ccnc23)ncn1 + CC[C@@]1(O)C(=O)OCc2c1cc1n(c2=O)Cc2cc3c(CN(C)C)c(O)ccc3nc2-1	< 0.0316 µM

same assay, conditions: second compound 0.003 µM; first compound 0.0316 µM; stronger effect = lower value; spheroids with HUVEC and MSC

SMILES	viability, T/C
CC(C)n1c(=O)n(C)c2cnc3cc(F)c(-c4ccc(OCCCN5CCCCC5)nc4)cc3c21 + CC[C@@]1(O)C(=O)OCc2c1cc1n(c2=O)Cc2cc3c(CN(C)C)c(O)ccc3nc2-1	33.1%
CC1COCCN1c1cc(-c2ccnn2C)c2ccnc(-c3ccn[nH]3)c2n1 (configuration not stated) + CC[C@@]1(O)C(=O)OCc2c1cc1n(c2=O)Cc2cc3c(CN(C)C)c(O)ccc3nc2-1	14.9%
COc1cc(C)[nH]c(=O)c1CN1CCc2c(Cl)cc(C(OC)C3COC3)c(Cl)c2C1=O (configuration not stated) + CC[C@@]1(O)C(=O)OCc2c1cc1n(c2=O)Cc2cc3c(CN(C)C)c(O)ccc3nc2-1	69.7%
COc1ccc([C@@H](O)c2cc(-c3ncnc4cc(N5CCOCC5)ccc34)c(F)cc2Cl)nn1 + CC[C@@]1(O)C(=O)OCc2c1cc1n(c2=O)Cc2cc3c(CN(C)C)c(O)ccc3nc2-1	42.3%
Cc1cc(C)c(CNC(=O)c2cc(-c3ccc(CN4CCOCC4)cc3)cc3c2cnn3C2CCCC2)c(=O)[nH]1 + CC[C@@]1(O)C(=O)OCc2c1cc1n(c2=O)Cc2cc3c(CN(C)C)c(O)ccc3nc2-1	52.6%
[2H]c1nc(C)nc([2H])c1-c1cc(NC[C@@H](C)c2cccc3c(C(=O)NC)ccnc23)ncn1 + CC[C@@]1(O)C(=O)OCc2c1cc1n(c2=O)Cc2cc3c(CN(C)C)c(O)ccc3nc2-1	51%

same assay, conditions: second compound 0.003 µM; first compound 0.1 µM; stronger effect = lower value; spheroids with HUVEC and MSC

SMILES	viability, T/C
CC(C)n1c(=O)n(C)c2cnc3cc(F)c(-c4ccc(OCCCN5CCCCC5)nc4)cc3c21 + CC[C@@]1(O)C(=O)OCc2c1cc1n(c2=O)Cc2cc3c(CN(C)C)c(O)ccc3nc2-1	48.3%
CC1COCCN1c1cc(-c2ccnn2C)c2ccnc(-c3ccn[nH]3)c2n1 (configuration not stated) + CC[C@@]1(O)C(=O)OCc2c1cc1n(c2=O)Cc2cc3c(CN(C)C)c(O)ccc3nc2-1	7.36%
COc1cc(C)[nH]c(=O)c1CN1CCc2c(Cl)cc(C(OC)C3COC3)c(Cl)c2C1=O (configuration not stated) + CC[C@@]1(O)C(=O)OCc2c1cc1n(c2=O)Cc2cc3c(CN(C)C)c(O)ccc3nc2-1	57.6%
COc1ccc([C@@H](O)c2cc(-c3ncnc4cc(N5CCOCC5)ccc34)c(F)cc2Cl)nn1 + CC[C@@]1(O)C(=O)OCc2c1cc1n(c2=O)Cc2cc3c(CN(C)C)c(O)ccc3nc2-1	46.7%
Cc1cc(C)c(CNC(=O)c2cc(-c3ccc(CN4CCOCC4)cc3)cc3c2cnn3C2CCCC2)c(=O)[nH]1 + CC[C@@]1(O)C(=O)OCc2c1cc1n(c2=O)Cc2cc3c(CN(C)C)c(O)ccc3nc2-1	52.9%
[2H]c1nc(C)nc([2H])c1-c1cc(NC[C@@H](C)c2cccc3c(C(=O)NC)ccnc23)ncn1 + CC[C@@]1(O)C(=O)OCc2c1cc1n(c2=O)Cc2cc3c(CN(C)C)c(O)ccc3nc2-1	62.2%

same assay, conditions: second compound 0.003 µM; first compound 0.316 µM; stronger effect = lower value; spheroids with HUVEC and MSC

SMILES	viability, T/C
CC(C)n1c(=O)n(C)c2cnc3cc(F)c(-c4ccc(OCCCN5CCCCC5)nc4)cc3c21 + CC[C@@]1(O)C(=O)OCc2c1cc1n(c2=O)Cc2cc3c(CN(C)C)c(O)ccc3nc2-1	61.5%
CC1COCCN1c1cc(-c2ccnn2C)c2ccnc(-c3ccn[nH]3)c2n1 (configuration not stated) + CC[C@@]1(O)C(=O)OCc2c1cc1n(c2=O)Cc2cc3c(CN(C)C)c(O)ccc3nc2-1	5.05%
COc1cc(C)[nH]c(=O)c1CN1CCc2c(Cl)cc(C(OC)C3COC3)c(Cl)c2C1=O (configuration not stated) + CC[C@@]1(O)C(=O)OCc2c1cc1n(c2=O)Cc2cc3c(CN(C)C)c(O)ccc3nc2-1	74.2%
COc1ccc([C@@H](O)c2cc(-c3ncnc4cc(N5CCOCC5)ccc34)c(F)cc2Cl)nn1 + CC[C@@]1(O)C(=O)OCc2c1cc1n(c2=O)Cc2cc3c(CN(C)C)c(O)ccc3nc2-1	42.6%
Cc1cc(C)c(CNC(=O)c2cc(-c3ccc(CN4CCOCC4)cc3)cc3c2cnn3C2CCCC2)c(=O)[nH]1 + CC[C@@]1(O)C(=O)OCc2c1cc1n(c2=O)Cc2cc3c(CN(C)C)c(O)ccc3nc2-1	54.8%
[2H]c1nc(C)nc([2H])c1-c1cc(NC[C@@H](C)c2cccc3c(C(=O)NC)ccnc23)ncn1 + CC[C@@]1(O)C(=O)OCc2c1cc1n(c2=O)Cc2cc3c(CN(C)C)c(O)ccc3nc2-1	63.5%

same assay, conditions: second compound 0.003 µM; first compound 1 µM; stronger effect = lower value; spheroids with HUVEC and MSC

SMILES	viability, T/C
CC(C)n1c(=O)n(C)c2cnc3cc(F)c(-c4ccc(OCCCN5CCCCC5)nc4)cc3c21 + CC[C@@]1(O)C(=O)OCc2c1cc1n(c2=O)Cc2cc3c(CN(C)C)c(O)ccc3nc2-1	63.7%
CC1COCCN1c1cc(-c2ccnn2C)c2ccnc(-c3ccn[nH]3)c2n1 (configuration not stated) + CC[C@@]1(O)C(=O)OCc2c1cc1n(c2=O)Cc2cc3c(CN(C)C)c(O)ccc3nc2-1	5.69%
COc1cc(C)[nH]c(=O)c1CN1CCc2c(Cl)cc(C(OC)C3COC3)c(Cl)c2C1=O (configuration not stated) + CC[C@@]1(O)C(=O)OCc2c1cc1n(c2=O)Cc2cc3c(CN(C)C)c(O)ccc3nc2-1	65%
COc1ccc([C@@H](O)c2cc(-c3ncnc4cc(N5CCOCC5)ccc34)c(F)cc2Cl)nn1 + CC[C@@]1(O)C(=O)OCc2c1cc1n(c2=O)Cc2cc3c(CN(C)C)c(O)ccc3nc2-1	38.4%
